Data as given in patent US8993760B2, “Rock inhibitors and uses thereof” (University of South Florida, priority 2006, dated 2015).
Like-named read-outs stand apart in the source and are kept apart here.

Molecular target: Rho-kinase (ROCK1) (Homo sapiens, UniProt Q13464)
Assay: Rho-kinase (ROCK1) inhibition
Assay type: biochemical
Conditions: for % Inhibition / Inhibition: concentration not given
[1] = Table 2, first number of the cell
[2] = read-out: IC50, inhibitory activity against Rho-kinase activity
[3] = Table 3, first number of the cell
[4] = Table 1, first number of the cell

Chain of Rho-kinase (ROCK1) (Q13464 whole entry, species assumed): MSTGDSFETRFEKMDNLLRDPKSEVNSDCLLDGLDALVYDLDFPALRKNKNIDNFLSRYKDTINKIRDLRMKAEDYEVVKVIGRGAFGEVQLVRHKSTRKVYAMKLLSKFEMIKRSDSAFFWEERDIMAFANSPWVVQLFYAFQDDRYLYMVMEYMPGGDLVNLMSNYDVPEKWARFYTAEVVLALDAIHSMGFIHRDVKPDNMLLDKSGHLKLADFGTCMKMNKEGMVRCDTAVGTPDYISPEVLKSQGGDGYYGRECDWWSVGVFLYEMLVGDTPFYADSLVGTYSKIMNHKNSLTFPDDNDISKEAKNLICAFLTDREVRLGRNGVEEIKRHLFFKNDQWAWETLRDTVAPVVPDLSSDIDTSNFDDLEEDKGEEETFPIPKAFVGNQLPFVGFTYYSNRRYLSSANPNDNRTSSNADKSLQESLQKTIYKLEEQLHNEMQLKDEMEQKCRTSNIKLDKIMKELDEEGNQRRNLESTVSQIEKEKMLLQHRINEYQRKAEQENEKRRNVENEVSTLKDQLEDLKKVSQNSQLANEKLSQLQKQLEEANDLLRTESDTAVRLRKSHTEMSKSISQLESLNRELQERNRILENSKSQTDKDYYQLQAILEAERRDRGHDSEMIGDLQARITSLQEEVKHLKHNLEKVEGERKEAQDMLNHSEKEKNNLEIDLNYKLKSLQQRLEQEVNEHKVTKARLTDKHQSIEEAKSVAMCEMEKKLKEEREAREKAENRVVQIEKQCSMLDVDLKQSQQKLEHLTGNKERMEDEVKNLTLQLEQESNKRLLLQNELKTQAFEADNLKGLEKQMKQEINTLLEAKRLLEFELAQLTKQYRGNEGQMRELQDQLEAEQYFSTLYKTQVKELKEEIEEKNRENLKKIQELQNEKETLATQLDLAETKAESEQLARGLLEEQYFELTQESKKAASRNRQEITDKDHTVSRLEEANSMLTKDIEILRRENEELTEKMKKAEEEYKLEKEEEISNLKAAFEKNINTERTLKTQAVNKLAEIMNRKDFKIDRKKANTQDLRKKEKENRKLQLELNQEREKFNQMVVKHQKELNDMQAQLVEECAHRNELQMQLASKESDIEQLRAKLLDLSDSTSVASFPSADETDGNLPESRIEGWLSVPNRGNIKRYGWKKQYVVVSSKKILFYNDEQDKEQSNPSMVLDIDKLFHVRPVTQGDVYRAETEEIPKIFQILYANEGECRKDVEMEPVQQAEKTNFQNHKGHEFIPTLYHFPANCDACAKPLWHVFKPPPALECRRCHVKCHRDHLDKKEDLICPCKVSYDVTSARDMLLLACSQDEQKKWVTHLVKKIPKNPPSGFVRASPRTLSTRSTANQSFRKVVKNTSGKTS

## CSCC[C@@H]1NC(=O)CN(Cc2ccncc2)C1=O [Compound 1b]
Table 2
  % Inhibition (@ 100 μM): 1.96%
[1]
  % Inhibition: 25%

## O=C1CN(Cc2ccncc2)C(=O)[C@H](CO)N1 [Compound 1d]
Table 2
  % Inhibition (@ 100 μM): 1.73%
[1]
  % Inhibition: 45%

## O=C1CN(Cc2ccncc2)C(=O)[C@H](Cc2ccccc2)N1 [Compound 1e]
[1]
  % Inhibition: ~20%

## CSCC[C@H]1CN(Cc2ccncc2)CCN1 [Compound 2b]
Table 2
  % Inhibition (@ 100 μM): 4.35%
[1]
  % Inhibition: 36%

## OC[C@H]1CN(Cc2ccncc2)CCN1 [Compound 2d]
Table 2
  % Inhibition (@ 100 μM): 3.73%
[1]
  % Inhibition: 20%

## CSCC[C@@H]1NC(=O)CN(Cc2ccccc2)C1=O [Compound 3b]
[1]
  % Inhibition: 78%

## O=C1CN(Cc2ccccc2)C(=O)[C@H](Cc2ccccc2)N1 [Compound 3e]
Table 2
  % Inhibition (@ 100 μM): 0.75%
[1]
  % Inhibition: 61%

## CSCC[C@H]1CN(Cc2ccccc2)CCN1 [Compound 4b]
Table 2
  % Inhibition (@ 100 μM): 0.53%
[1]
  % Inhibition: 60%

## CSCC[C@@H]1NC(=O)CN(Cc2cccc3ccccc23)C1=O [Compound 5b]
Table 2
  % Inhibition (@ 100 μM): −1.48%
[1]
  % Inhibition: 93%

## O=C1CN(Cc2cccc3ccccc23)C(=O)[C@H](Cc2ccccc2)N1 [Compound 5e]
Table 2
  % Inhibition (@ 100 μM): −1.87%
[1]
  % Inhibition: 71%

## CSCC[C@H]1CN(Cc2cccc3ccccc23)CCN1 [Compound 6b]
Table 2
  % Inhibition (@ 100 μM): 11.9%
[1]
  % Inhibition: 62%

## c1ccc(C[C@H]2CN(Cc3cccc4ccccc34)CCN2)cc1 [Compound 6e, N-Naphtylmethyl-3-benzyl piperazine]
  inhibitory activity / disruption of Rho-kinase activity (in words): particular effectiveness
Table 2
  % Inhibition (@ 100 μM): 20.4%
[1]
  % Inhibition: 75%

## CCOC(=O)C1CCN(C(=O)Nc2ccncc2)CC1 [Compound 7]
Table 4
  Inhibition (@ 100 μM): 6.29 (@ 100 μM)

## Cl.O=C(O)C1CCN(C(=O)Nc2ccncc2)CC1 [Compound 8]
Table 4
  Inhibition (@ 100 μM): 1.59 (@ 100 μM)

## O=C(Nc1ccncc1)N1CCCN(Cc2ccccc2)CC1 [Compound 9]
Table 4
  Inhibition (@ 100 μM): 21.0 (@ 100 μM)

## O=C(Nc1ccncc1)N1CCCNCC1 [Compound 10]
Table 4
  Inhibition (@ 100 μM): 16.7 (@ 100 μM)

## O=C(Nc1ccncc1)N1CCN[C@@H](COCc2ccccc2)C1 [Compound 12a]
Table 4
  Inhibition (@ 100 μM): 9.58

## O=C(Nc1ccncc1)N1CCN[C@@H](Cc2ccccc2)C1 [Compound 12b]
  inhibitory activity / disruption of Rho-kinase activity (in words): potent disrupters of active Rho-kinase
[2]
  IC50: 14 µM

## O=C(Nc1ccncc1)NC1CCN(Cc2ccccc2)CC1 [Compound 14a]
Table 4, read-out: IC50
  IC50: 90 µM

## O=C(Nc1ccncc1)OC1CCN(Cc2ccccc2)CC1 [Compound 14b]
Table 4, read-out: IC50
  IC50: 56 µM

## O=C(Nc1ccncc1)NC1CCNCC1 [Compound 15a]
Table 4, read-out: IC50
  IC50: 55 µM

## O=C(Nc1ccncc1)OC1CCNCC1 [Compound 16b]
  inhibitory activity / disruption of Rho-kinase activity (in words): potent disrupters of active Rho-kinase
[2]
  IC50: 7.5 µM

## CC(C)(C)OC(=O)N1CCN(C(=O)c2cccc3cnccc23)C[C@@H]1Cc1ccccc1 [IP-III-153]
[3]
  Inhibition: 91

## O=C(c1cccc2cnccc12)N1CCN[C@@H](Cc2ccccc2)C1 [IP-IV-15]
[3]
  Inhibition: 70

## c1ccc(C[C@H]2CN(Cc3cccc4cnccc34)CCN2)cc1 [IP-IV-29]
[3]
  Inhibition: 16 IC50 = 16 μM
Table 3, read-out: IC50
  IC50: 16 µM

## CC(C)(C)OC(=O)N1CCN(c2ccnc3ccccc23)C[C@@H]1Cc1ccccc1 [IP-IV-33]
[4]
  % Inhibition: 47%

## CC(C)(C)OC(=O)N1CCN(c2ccnc3ccccc23)C[C@@H]1COCc1ccccc1 [IP-IV-35]
[4]
  % Inhibition: 54%

## CCOC(=O)C1CCN(CC(=O)Nc2ccncc2)CC1 [IP-IV-39]
Table 5
  % Inhibition (@ 100 μM): −1.46 (@ 100 μM) %

## CC(C)(C)OC(=O)N1CCN(c2cccc3cnccc23)C[C@@H]1Cc1ccccc1 [IP-IV-41]
  inhibitory activity / disruption of Rho-kinase activity (in words): potent disrupters of active Rho-kinase
Table 1
  % Inhibition (@ 100 μM): 9.71%
[4]
  % Inhibition: 83%

## CC(C)(C)OC(=O)N1CCN(c2cccc3cnccc23)C[C@@H]1COCc1ccccc1 [IP-IV-43]
Table 1
  % Inhibition (@ 100 μM): 4.73%
[4]
  % Inhibition: 49%

## c1ccc(C[C@H]2CN(c3ccnc4ccccc34)CCN2)cc1 [IP-IV-47]
[4]
  % Inhibition: 43%

## c1ccc(COC[C@H]2CN(c3ccnc4ccccc34)CCN2)cc1 [IP-IV-49]
  inhibitory activity / disruption of Rho-kinase activity (in words): potent disrupters of active Rho-kinase
[4]
  % Inhibition: 85%

## c1ccc([C@H]2CN(c3cccc4cnccc34)CCN2)cc1 [IP-IV-67]
[4]
  % Inhibition: 67%
Table 1, read-out: IC50
  IC50: 3.5 µM

## O=C(CN1CCCN(Cc2ccccc2)CC1)Nc1ccncc1 [IP-IV-73]
Table 5
  % Inhibition (@ 100 μM): 13.31 (@ 100 μM) %

## O=C(CN1CCCNCC1)Nc1ccncc1 [IP-IV-81]
Table 5
  % Inhibition (@ 100 μM): 30.61 (@ 100 μM) %

## CC(C)[C@H]1CN(C(=O)c2cccc3cnccc23)CCN1C(=O)OC(C)(C)C [IP-IV-89]
[3]
  Inhibition: 82

## CC(C)[C@H]1CN(C(=O)c2cccc3cnccc23)CCN1 [IP-IV-103]
[3]
  Inhibition: 81

## O=C(Nc1cccc2cnccc12)N1CCCN(Cc2ccccc2)CC1 [IP-IV-105]
Table 5
  % Inhibition (@ 100 μM): −0.85 (@ 100 μM) %

## CC(C)[C@H]1CN(Cc2cccc3cnccc23)CCN1 [IP-IV-107]
[3]
  Inhibition: 29
Table 3, read-out: IC50
  IC50: 22 µM

## c1ccc(C[C@H]2CN(Cc3cccc4ncccc34)CCN2)cc1 [IP-IV-109 R = H2]
Table 3, read-out: IC50
  IC50: 67 µM

## O=C(c1cccc2ncccc12)N1CCNC(Cc2ccccc2)C1 (stereo not drawn) [IP-IV-109 R = O]
Table 3
  Inhibition (@ 100 μM): 1.55 (@ 100 μM)

## O=C(Nc1cccc2cnccc12)OC1CCN(Cc2ccccc2)CC1 [IP-IV-115]
Table 5
  % Inhibition: 50%

## O=C(Nc1cccc2cnccc12)NC1CCCCCC1 [IP-IV-129]
Table 5
  % Inhibition: 50%
